Measurements reported in patent US20190269730A1, “REGULATABLE CELL LINES AND METHODS OF USE THEREOF” (Auxolytic Ltd, priority 2016, published 2019).

Key:
[1] = test system: UMPS edited human T cells; test: Growth of heterogeneous UMPS edited T cell population with/without exogenous uracil source (cell counts); format: cell-based; conditions: UMP or Uridine added at 250 ug/ml; no selection step; compared with mock edited and CCR5 targeted controls
Protocol: Cells were cryopreserved in Bambanker medium. After thawing cells were cultured at 37° C., 5% CO2 in X-Vivo 15 (Lonza) supplemented with or without 5% human serum (Sigma-Aldrich) and 100 IU/ml human recombinant IL-2 (Peprotech) and 10 ng/ml human recombinant IL-7 (BD Biosciences). UMP or Uridine were added at 250 ug/ml. 5-FOA was added at 100 ug/ml to 1 mg/ml. During culture, medium was refreshed every 2 days. T cells were activated using immobilized Anti-CD3 (clone OKT3, Tonbo Biosciences) and soluble anti-CD28 (clone CD28.2, Tonbo Biosciences) for 3 days before electroporation. For the experiments in FIGS. 1, 3 and 4, 1.4 million activated T cells were electroporated. For the experiments in FIG. 2, 30,000 activated T cells were electroporated per condition. These cells were resuspended in electroporation solution, mixed with the pre-complexed RNP and electroporated using a 4D-Nucleofector (Lonza) using program EO-115. The RNP consisted of Cas9 protein (Alt-R® S. pyogenes, IDT) at 300 ug/ml and sgRNA using a sgRNA:Cas9 molar ratio of 2.5. Genomic DNA was harvested using QuickExtract (Epicentre). Cells were counted on an automated cell counter using Trypan blue staining or on a Cytoflex (Beckman Coulter) flow cytometer using CountBright beads (ThermoFisher) as a reference. Data was analyzed using Excel (Microsoft) and FlowJo (Tree Star). […]

human T cells = test: 5-FOA resistance assay of UMPS targeted vs mock targeted T cells (cell counts after 4 days); format: cell-based; conditions: for survival / viability of cells in 5-FOA: mock treated and UMPS targeted T cells grown in 5-FOA for 4 days, UMP or Uridine 250 ug/ml, 5% human serum
Protocol: (§1) Cells were cryopreserved in Bambanker medium. After thawing cells were cultured at 37° C., 5% CO2 in X-Vivo 15 (Lonza) supplemented with or without 5% human serum (Sigma-Aldrich) and 100 IU/ml human recombinant IL-2 (Peprotech) and 10 ng/ml human recombinant IL-7 (BD Biosciences). UMP or Uridine were added at 250 ug/ml. 5-FOA was added at 100 ug/ml to 1 mg/ml. During culture, medium was refreshed every 2 days.
(§2) Genomic DNA was harvested using QuickExtract (Epicentre). Cells were counted on an automated cell counter using Trypan blue staining or on a Cytoflex (Beckman Coulter) flow cytometer using CountBright beads (ThermoFisher) as a reference. Data was analyzed using Excel (Microsoft) and FlowJo (Tree Star).
5-FOA selects for uracil auxotrophic cells in other organisms (e.g. Boeke et al. 1984, Mol. Gen. Genet. 197(2):345-6). To investigate the potential utility of 5-FOA for the selection of uracil auxotrophs in human cells, the UMPS gene was targeted in human T cells by Cas9-gRNA complex electroporation followed by recovery (as in Example 2) followed by an assay of resistance to 5-FOA treatment (FIG. 3A). Cells were grown in 5-FOA and a variety of combinations of serum and uracil sources for 4 days before cell counting was performed. […] This is likely through a competition based mechanism (uridine can reverse 5-fluorouracil toxicity in humans (van Groeningen et al. 1992, Semin. Oncol. 19(2 Suppl 3):148-54)) (FIGS. 3B and C).

[2] = test system: 5-FOA selected UMPS targeted T cells; test: Uracil auxotrophy growth assay of 5-FOA selected T cells (cell counts at day 8); format: cell-based, human
Protocol: as §1, §2
To assay whether or not the cells selected for by 5-FOA treatment are uracil auxotrophs, mock or UMPS targeted T cells were exposed to 5-FOA as in Example 4. Following 4 days of 5-FOA selection, the population of cells was split into a uracil containing media (either UMP, uridine or both) and a uracil deficient media. A growth assay was subsequently performed by cell counting after following 4 days incubation in test media (day 8) (FIG. 4A).

Compound	growth of UMPS edited cells [1]	survival / viability of cells in 5-FOA (human T cells)	cell growth of 5-FOA selected UMPS targeted population ([2]; 4 days in uracil containing (UMP, uridine or both) vs uracil deficient media after 4 days of 5-FOA selection)	toxicity of 5-FOA (human T cells; UMPS targeted vs mock targeted T cells, 4 days of 5-FOA selection, 100 ug/ml to 1 mg/ml)	killing of non-UMPS targeted cells during 5-FOA selection ([2]; mock targeted T cell cultures, growth negligible after selection)
O=c1ccn([C@@H]2O[C@H](COP(=O)(O)O)[C@@H](O)[C@H]2O)c(=O)[nH]1 [UMP]	rescue the growth of UMPS edited cells to the same level as mock edited and CCR5 targeted controls	improved the survival of both mock treated and UMPS targeted cells in 5-FOA	–	–	–
O=c1ccn([C@@H]2O[C@H](CO)[C@@H](O)[C@H]2O)c(=O)[nH]1 [uridine]	rescue the growth of UMPS edited cells to the same level as mock edited and CCR5 targeted controls	improved the survival of both mock treated and UMPS targeted cells in 5-FOA	–	–	–
O=c1cc[nH]c(=O)[nH]1 [uracil]	–	–	cell growth was stimulated	–	–
O=C(O)c1[nH]c(=O)[nH]c(=O)c1F [5-FOA, 5-fluoroorotic acid]	–	–	–	less toxic in UMPS targeted cell lines	successful killing of non-UMPS targeted cells
